Measured values taken from patent US7226931B2, “(R/S) rifamycin derivatives, their preparations and pharmaceutical compositions” (priority 2004, dated 2007).
Converted amounts (≈) assume the structure as drawn. Read-outs that look alike come from different tables or passages of the source.

Key:
S. pyogenes ATCC 19615 = test: MIC by microbroth dilution, S. pyogenes ATCC 19615; type: cell-based, Streptococcus pyogenes
Method: (§1) Representative compounds of the formula (I) were assayed for antimicrobial activity as follows: Minimum Inhibitory Concentrations (MICs) were determined by the microbroth dilution method as per NCCLS guidelines (National Committee for Clinical Laboratory Standards, 2000). All growth incubations were conducted at 37° C. Bacterial cultures were tested in the following bacteriological media: S. aureus, S. epidermidis in Cation-Adjusted Mueller-Hinton Broth, S. pneumoniae in THY Broth supplemented with 1 mg/mL catalase under 5% CO2 atmosphere, S. pyogenes in THY Broth, E. faecalis in BHI Broth, H. influenzae in BHI Broth supplemented with 0.75 μL of 1 mg/mL NAD and 150 μL of 1 mg/ml hematin per 5 mL.
(§2) S. aureus ATCC 29213, S. epidermidis ATCC 12228, S. pneumoniae ATCC6303, S. pyogenes ATCC 19615 and E. faecalis ATCC 29212 are rifampin-susceptible Gram-positive strains. […] H. influenzae ATCC 10211 is Gram-negative bacteria.

H. influenzae ATCC 10211 = test: MIC by microbroth dilution, H. influenzae ATCC 10211; type: cell-based, Haemophilus influenzae
Method: as §1, §2

[1] = test system: S. epidermidis ATCC 12228; test: MIC by microbroth dilution, S. epidermidis ATCC 12228; type: cell-based, Staphylococcus epidermidis
Method: as §1, §2

[2] = test system: S. aureus ATCC 29213 RpoB^D417Y; test: microbe, parasite or virus in culture; type: cell-based; conditions: Staphylococcus aureus
Method: as §1, §2

S. pneumoniae ATCC6303 = test: MIC by microbroth dilution, S. pneumoniae ATCC6303; type: cell-based, Streptococcus pneumoniae
Method: as §1, §2

S. aureus ATCC 29213 = test: MIC by microbroth dilution, S. aureus ATCC 29213 (rifS); type: cell-based, Staphylococcus aureus
Method: as §1, §2

[3] = test system: Staphylococcus aureus MT1222 gyrA^A116E grlB^S80F; test: MIC by microbroth dilution, quinolone-resistant S. aureus MT1222; type: cell-based
Method: as §1, §2

[4] = MIC by microbroth dilution, panel of rifampin-susceptible Gram-positive strains; type: cell-based; conditions: range over the rifampin-susceptible Gram-positive strains
Method: as §1, §2

[5] = test system: pathogenic microorganisms; test: Antibacterial activity, influence of linker chirality (R versus S); type: cell-based; conditions: (R)- versus (S)-absolute configuration at the linker carbon
Method: as §1, with “As already mentioned, the compounds of formula I or their salts have antibacterial properties and activities against rifampin and quinolone resistant strains. […] Representative” for “Representative”
The antibacterial activities of the compounds of the formula (I) are influenced by the chirality of the linker.

[6] = Streptococcus pyogenes, ATCC19615, read-out: Antimicrobial activity (MIC)
[7] = Haemophilus influenzae ATCC10211, rifS, read-out: Antimicrobial activity (MIC)
[8] = Staphylococcus epidermidis, ATCC12228, read-out: Antimicrobial activity (MIC)
[9] = ATCC29213, read-out: Antimicrobial activity (MIC)
[10] = Streptococcus pneumoniae, ATCC6303, read-out: Antimicrobial activity (MIC)
[11] = Staphylococcus aureus, ATCC29213, read-out: Antimicrobial activity (MIC)
[12] = read-out: Antimicrobial activity (MIC)
[13] = Streptococcus pyogenes ATCC19615, rifS, read-out: Antimicrobial activity (MIC)
[14] = Staphylococcus epidermidis ATCC12228, rifS, read-out: Antimicrobial activity (MIC)
[15] = Streptococcus pneumoniae ATCC6303, rifS, read-out: Antimicrobial activity (MIC)
[16] = Staphylococcus aureus ATCC29213, rifS, read-out: Antimicrobial activity (MIC)

Compound	MIC (S. pyogenes ATCC 19615; [6])	MIC (H. influenzae ATCC 10211; [7])	MIC [1, 8]	MIC [2, 9]	MIC (S. pneumoniae ATCC6303; [10])	MIC (S. aureus ATCC 29213; [11])	MIC [3, 12]	MIC (S. pyogenes ATCC 19615; [13])	MIC [4]	MIC (H. influenzae ATCC 10211; Haemophilus influenzae, ATCC10211, Gram-negative bacteria (H. influenzae ATCC 10211, 'these organisms'), read-out: MICs)	MIC [1, 14]	MIC ([2]; ATCC29213)	MIC (S. pneumoniae ATCC6303; [15])	MIC (S. aureus ATCC 29213; [16])	antibacterial activity compared with example 2 ((S)-configuration) [5]	MIC [3]
CO[C@H]1/C=C/O[C@@]2(C)Oc3c(C)c(O)c4c(O)c(c(/C=N/N5CCC(N(C)C6([C@H]7CCN(c8c(F)cn9c(=O)c(C(=O)O)cc(C%10CC%10)c9c8C)C7)CC6)CC5)c(O)c4c3C2=O)NC(=O)/C(C)=C\C=C\[C@H](C)[C@H](O)[C@@H](C)[C@@H](O)[C@@H](C)[C@H](OC(C)=O)[C@@H]1C [Example 2, (S)-3-[(4-{1-[1-(3-Carboxy-1-cyclopropyl-7-fluoro-9-methyl-4-oxo-4H-quinolizine-8-yl)-pyrrolidin-3-yl-cyclopropyl]-methylamino}-piperidin-1-ylimino)-methylenyl]-rifamycin SV]	0.03 mg/L (≈ 0.0249 µM)	0.5 mg/L (≈ 0.415 µM)	0.12 mg/L (≈ 0.0996 µM)	8 mg/L (≈ 6.64 µM)	0.015 mg/L (≈ 0.0124 µM)	0.24 mg/L (≈ 0.199 µM)	0.24 mg/L (≈ 0.199 µM)									
CO[C@H]1/C=C/O[C@@]2(C)Oc3c(C)c(O)c4c(O)c(c(/C=N/N5CCN(C)CC5)c(O)c4c3C2=O)NC(=O)/C(C)=C\C=C\[C@H](C)[C@H](O)[C@@H](C)[C@@H](O)[C@@H](C)[C@H](OC(C)=O)[C@@H]1C [rifampin]		0.24 mg/L (≈ 0.292 µM)		> 256 mg/L			0.004 mg/L (≈ 0.00486 µM)	0.013 mg/L (≈ 0.0158 µM)	0.008 to 1 mg/L (≈ 0.00972 to 1.22 µM)	0.24 to 16 mg/L (≈ 0.292 to 19.4 µM)	0.03 mg/L (≈ 0.0365 µM)	> 256 mg/L	0.061 mg/L (≈ 0.0741 µM)	0.008 mg/L (≈ 0.00972 µM)		
CO[C@H]1/C=C/O[C@@]2(C)Oc3c(C)c(O)c4c(O)c(c(/C=N/N5CCC(N(C)C6([C@@H]7CCN(c8c(F)cn9c(=O)c(C(=O)O)cc(C%10CC%10)c9c8C)C7)CC6)CC5)c(O)c4c3C2=O)NC(=O)/C(C)=C\C=C\[C@H](C)[C@H](O)[C@@H](C)[C@@H](O)[C@@H](C)[C@H](OC(C)=O)[C@@H]1C [Example 1, (R)-3-[(4-{1-[1-(3-Carboxy-1-cyclopropyl-7-fluoro-9-methyl-4-oxo-4H-quinolizine-8-yl)-pyrrolidin-3-yl-cyclopropyl]-methylamino}-piperidin-1-ylimino)-methylenyl]-rifamycin SV]	0.015 mg/L (≈ 0.0124 µM)	0.5 mg/L (≈ 0.415 µM)	0.06 mg/L (≈ 0.0498 µM)	0.5 mg/L (≈ 0.415 µM)	0.015 mg/L (≈ 0.0124 µM)	0.06 mg/L (≈ 0.0498 µM)	0.06 mg/L (≈ 0.0498 µM)								more active	
O=C(O)c1cn(C2CC2)c2cc(N3CCNCC3)c(F)cc2c1=O [ciprofloxacin]		0.008 mg/L (≈ 0.0241 µM)		0.25 mg/L (≈ 0.754 µM)			8 mg/L (≈ 24.1 µM)	0.5 mg/L (≈ 1.51 µM)			0.125 mg/L (≈ 0.377 µM)		1 mg/L (≈ 3.02 µM)	0.25 mg/L (≈ 0.754 µM)		8 mg/L (≈ 24.1 µM)
